Data as given in ChEMBL document CHEMBL2429764, “Synthesis and cytotoxic activity of novel hybrid compounds between 2-alkylbenzofuran and imidazole” (Med Chem Res, 2013).

Tests used:
Format in all cases: functional, cell-based
HL-60 = assay: Cytotoxicity against human HL60 cells after 48 hrs by MTT assay; conditions: HL-60, 48 h
SW480 = assay: Cytotoxicity against human SW480 cells after 48 hrs by MTT assay; conditions: SW480, 48 h
SMMC-7721 = assay: Cytotoxicity against human SMMC7721 cells after 48 hrs by MTT assay; conditions: SMMC-7721, 48 h
MCF7 = assay: Cytotoxicity against human MCF7 cells after 48 hrs by MTT assay; conditions: MCF7, 48 h
A549 = assay: Cytotoxicity against human A549 cells after 48 hrs by MTT assay; conditions: A549, 48 h

SMILES | IC50 (HL-60) [µM] | IC50 (SW480) [µM] | IC50 (SMMC-7721) [µM] | IC50 (MCF7) [µM] | IC50 (A549) [µM]
c1ccc2oc(Cn3cnc4ccccc43)cc2c1 | > 40 | > 40 | > 40 | > 40 | > 40
CCc1n(Cc2cc3ccccc3o2)cc[n+]1CC(=O)c1ccc(Br)cc1 | 1.87 | 1.34 | 7.51 | 4.47 | 25.7
O=C(C[n+]1cn(Cc2cc3ccccc3o2)c2ccccc21)c1ccc2ccccc2c1 | 3.62 | 17.1 | 6.44 | 3.72 | 6.73
Cc1n(Cc2cc3ccccc3o2)cc[n+]1C(C(=O)c1ccccc1)c1ccccc1 (stereo not given) | 4.44 | 9.96 | 11.3 | 6.79 | 14.8
O=C(C[n+]1ccn(Cc2cc3ccccc3o2)c1)c1ccc2ccccc2c1 | 6.27 | 17.1 | 8.08 | 12.7 | 9.95
Brc1ccccc1C[n+]1cn(Cc2cc3ccccc3o2)c2ccccc21 | 2.48 | 14.7 | 6.83 | 7.48 | 2.63
O=C(C[n+]1ccn(Cc2cc3ccccc3o2)c1)c1ccc(Br)cc1 | 10.3 | > 40 | 14.3 | 18 | 12.2
CCCC[n+]1cn(Cc2cc3ccccc3o2)c2ccccc21 | > 40 | > 40 | > 40 | > 40 | > 40
C=CC[n+]1ccn(Cc2cc3ccccc3o2)c1C | > 40 | > 40 | > 40 | > 40 | > 40
Cc1n(Cc2cc3ccccc3o2)cc[n+]1CC(=O)c1ccc(Br)cc1 | > 40 | > 40 | > 40 | > 40 | > 40
O=C(C[n+]1ccn(Cc2cc3ccccc3o2)c1)c1ccccc1 | > 40 | > 40 | > 40 | > 40 | > 40
C=CC[n+]1ccn(Cc2cc3ccccc3o2)c1 | > 40 | > 40 | > 40 | > 40 | > 40
Cc1n(Cc2cc3ccccc3o2)cc[n+]1CC(=O)c1ccc(O)cc1 | > 40 | > 40 | > 40 | > 40 | > 40
Cc1n(Cc2cc3ccccc3o2)cc[n+]1CC(=O)c1ccccc1 | > 40 | > 40 | > 40 | > 40 | > 40
CCc1n(Cc2cc3ccccc3o2)cc[n+]1C(C(=O)c1ccccc1)c1ccccc1 (stereo not given) | 2.25 | 7.15 | 6.16 | 3.3 | 10.3
CCc1n(Cc2cc3ccccc3o2)cc[n+]1CC(=O)c1ccccc1 | > 40 | > 40 | > 40 | > 40 | > 40
CCCC[n+]1ccn(Cc2cc3ccccc3o2)c1 | > 40 | > 40 | > 40 | > 40 | > 40

SMILES | IC50 (HL-60) [µM] | IC50 (SW480) [µM] | IC50 (SMMC-7721) [µM] | IC50 (MCF7) [µM] | IC50 (A549) [µM]
Brc1ccccc1C[n+]1ccn(Cc2cc3ccccc3o2)c1 | > 40 | > 40 | > 40 | > 40 | > 40
Cc1n(Cc2cc3ccccc3o2)cc[n+]1CC(=O)c1ccc2ccccc2c1 | 1.04 | 1.03 | 3.5 | 1.09 | 4.97
CCc1n(Cc2cc3ccccc3o2)cc[n+]1CC(=O)c1ccc(O)cc1 | > 40 | > 40 | > 40 | > 40 | > 40
O=C(C[n+]1cn(Cc2cc3ccccc3o2)c2ccccc21)c1ccc(Br)cc1 | 1.69 | 4.2 | 3.58 | 2.46 | 2.54
Cc1nccn1Cc1cc2ccccc2o1 | > 40 | > 40 | > 40 | > 40 | > 40
O=C(C[n+]1cn(Cc2cc3ccccc3o2)c2ccccc21)c1ccc(O)cc1 | > 40 | > 40 | > 40 | > 40 | > 40
CCc1nccn1Cc1cc2ccccc2o1 | > 40 | > 40 | > 40 | > 40 | > 40
CCc1n(Cc2cc3ccccc3o2)cc[n+]1CC(=O)c1ccc2ccccc2c1 | 1.45 | 1.69 | 4.26 | 2.59 | 7.44
COc1ccc(C(=O)C[n+]2ccn(Cc3cc4ccccc4o3)c2C)cc1 | 0.78 | 0.28 | 11.6 | 1.44 | 0.37
Cc1n(Cc2cc3ccccc3o2)cc[n+]1Cc1ccccc1Br | 1.28 | 3.89 | 10.2 | 2.24 | 2.96
CCc1n(Cc2cc3ccccc3o2)cc[n+]1CC(=O)c1ccc(OC)cc1 | 0.4 | 1.02 | 8.43 | 3.05 | 1.13
c1ccc2oc(Cn3ccnc3)cc2c1 | > 40 | > 40 | > 40 | > 40 | > 40
O=C(C[n+]1ccn(Cc2cc3ccccc3o2)c1)c1ccc(O)cc1 | > 40 | > 40 | > 40 | > 40 | > 40
O=C(c1ccccc1)C(c1ccccc1)[n+]1cn(Cc2cc3ccccc3o2)c2ccccc21 (stereo not given) | 6.77 | 9.75 | 14.8 | 9.83 | 12.6
COc1ccc(C(=O)C[n+]2ccn(Cc3cc4ccccc4o3)c2)cc1 | > 40 | > 40 | > 40 | > 40 | > 40
O=C(C[n+]1cn(Cc2cc3ccccc3o2)c2ccccc21)c1ccccc1 | > 40 | > 40 | > 40 | > 40 | > 40
COc1ccc(C(=O)C[n+]2cn(Cc3cc4ccccc4o3)c3ccccc32)cc1 | 3.91 | 23.1 | 13.6 | 14.6 | 7.18
